Data published in the METLIN SMRT retention time set (Domingo-Almenara et al. 2019).

Experiment: gradient 5% acetonitrile 3 min, to 50% in 2 min, to 85% in 15 min, held 3 min, 100 µL/min
Conditions: column: Zorbax Extend-C18 2.1 x 50 mm; eluents: water / acetonitrile, 0.1% formic acid
How it was run: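 Retention time was recorded from adduct peaks, which were picked computationally and each inspected manually. Pure standards ran in mixtures of ~100 molecules on HPLC coupled to a quadrupole time-of-flight mass spectrometer, in positive and negative ionization mode, through a Zorbax Extend-C18 column (2.1 × 50 mm, 1.8 μm) at 100 μL/min. Eluents were water and acetonitrile, each with 0.1% formic acid.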

Row | RP-LC retention time [s] | Structure (SMILES)
1 | 961 | COc1ccc(NC(=O)C2CN(S(=O)(=O)C3CC3)CC23CCCCC3)c(OC)c1 (stereo not drawn)
2 | 894 | COc1ccc(C2(C(=O)N3CCCCCCNC(=O)[C@@H]4CCCC[C@@H]43)CC2)cc1
3 | 1060 | Cc1ccccc1NC(=O)Cn1c(C)nc2c(sc3nc(-c4ccccc4)ccc32)c1=O
4 | 1180 | CCN(C(=O)CCCC(=O)OC)c1nc(-c2ccc(C)cc2)cs1
5 | 661 | O=C1C(N2CCCN(S(=O)(=O)c3cc(F)cc(F)c3)CC2)CCN1CC1CC1 (stereo not drawn)
6 | 574 | O=C(c1c(F)cccc1Cl)N1CCN(c2nccn2-c2ccccc2F)CC1
7 | 884 | Cc1ccc(NC(=O)Cn2nc3c(N4CC(C)CC(C)C4)nccn3c2=O)cc1 (stereo not drawn)
8 | 781 | COc1cccc(C(=O)Nc2cccc(-c3nc4ncccc4o3)c2)c1
9 | 673 | CSc1ccccc1C(=O)Nc1ccc2cn[nH]c2c1
10 | 912 | COc1ccc(Cl)cc1S(=O)(=O)NCc1c(-c2ccccc2)nc2sc(C)nn12
11 | 1300 | CCc1nc(-c2cccc(-c3noc(COc4ccccc4)n3)c2)cs1
12 | 757 | Cn1c(=O)c2c(NC(=O)c3ccco3)ccnc2n(C)c1=O
13 | 903 | CCOc1ccccc1NC(=O)C1CCc2nc(N3CCCCC3)ncc2C1 (stereo not drawn)
14 | 840 | COc1ccc(C)cc1NC(=O)Cn1nc(N2CCCC2)c2ccccc2c1=O
15 | 697 | Cc1cc(F)ccc1NS(=O)(=O)c1cc(-c2[nH]ncc2C(=O)N(C)C)oc1C
16 | 852 | Cc1ccc(CC(=O)N2CCC3(CC2)NC(=O)c2cc(C)ccc2N3C)cc1
17 | 860 | CC1=C(c2cccc(Cl)c2)S(=O)(=O)N=C1N1CCCN(C(=O)c2cccs2)CC1
18 | 587 | CCn1cc(CCN2CCC(C(=O)N3CCCCC3)CC2)c2cccnc21
19 | 1090 | COC(=O)c1ccc(NC(=O)c2sc(-c3cn(C(C)C)c4ncccc34)nc2C)cc1

Row | RP-LC retention time [s] | Structure (SMILES)
20 | 689 | O=C(NCC1CCN(C(=O)Oc2ccccc2)CC1)c1cnccn1
21 | 812 | COc1ccc(C2(C(=O)N3CC(c4nc(CCOCC5CCOCC5)no4)C3)CC2)cc1
22 | 1170 | O=S(=O)(c1cccc(Cl)c1)N1CCc2nc(-c3ccccc3)ncc2C1
23 | 574 | O=C(Nc1ccc(-c2nc3ccccc3[nH]2)cc1)c1ccccc1[N+](=O)[O-]
24 | 624 | CO[C@H]1C(=O)N(C2CCN(S(=O)(=O)c3ccc(C#N)cc3)CC2)[C@H]1c1ccncc1
25 | 685 | O=C(NCCn1nc(-c2cccs2)ccc1=O)c1ccc(-n2cccn2)nn1
26 | 789 | CC1(C(=O)NCc2ccccc2Cl)Cn2cnc(C(=O)NCc3ccccc3)c2C(=O)N1C1CC1 (stereo not drawn)
27 | 716 | Cc1cccc(-c2nn3c(N(C)C)cc(C)nc3c2C)c1
28 | 525 | CN1C(=O)[C@H]2CN(Cc3ccc(N(C)C)cc3)C[C@H]2C1=O
29 | 912 | COc1ccc(C2Cn3cnc(-c4nc(-c5ccc(OC)cc5OC)no4)c3CO2)cc1 (stereo not drawn)
30 | 1010 | CC1=C(C(=O)N(CC(=O)NCc2ccc(C)cc2)c2ccc(Cl)cc2)SCCO1
31 | 788 | COc1cccc(-c2cc3n(n2)CCCN(C(=O)COc2ccccc2)C3)c1
32 | 656 | CCNC(=O)CN1C(=O)CCn2nc(-c3cn(C)c4ccccc34)cc21
33 | 1150 | Cc1ccc(Sc2nccnc2N2CCCC(C(=O)Nc3cc(C)cc(C)c3)C2)cc1 (stereo not drawn)
34 | 618 | Cc1nc2ccc(C(=O)N(C)C)cc2nc1C
35 | 634 | CN(C)C(=O)c1n[nH]c2c1CN(C(=O)c1ccc(Br)cc1)CC2
36 | 639 | Cc1cc(=O)n(CC(=O)Nc2ccc(N(C)C)cc2)c(-c2ccccc2)n1
37 | 620 | CCCNC(=O)C1CCN(c2cncnc2N2CCCCC2)CC1
38 | 592 | CN(Cc1cc(Cl)ccc1F)C1CCc2nnc(C3CCOCC3)n2CC1 (stereo not drawn)

More lines, now with the values behind:

Row | Structure (SMILES) | RP-LC retention time [s]
39 | O=C(COc1ccccc1[N+](=O)[O-])N(Cc1ccccc1)Cc1ccccc1 | 1000
40 | CCCN1C(=O)c2c(C(=O)NCc3ccc(F)cc3)ncn2CC1(C)C(=O)NCc1ccc(F)cc1 (stereo not drawn) | 778
41 | O=C(CSc1nnc(NC(=O)C2CC2)s1)NCc1ccc(F)cc1 | 674
42 | Cn1nc(-c2nnc(-c3ccc(F)cc3)o2)c2c1CCN(S(=O)(=O)c1cccc3nsnc13)C2 | 910
43 | CC(C)CN1Cc2c(nc3ccccc3c2C(=O)N2CCC(C)CC2)C1=O | 834
44 | Cc1nc2ccn(Cc3cccnc3)c(=O)c2cc1C(=O)NCc1ccc2c(c1)OCO2 | 592
45 | CCn1c(N2CCCC(C(=O)NCc3ccc(SC)cc3)C2)cc(=O)n(C)c1=O (stereo not drawn) | 809
46 | CC(C)NC(=O)N1C[C@@H]2CCCN3CCC[C@@H]([C@H]23)[C@H]1CCCC(=O)NCC1CC1 | 578
47 | COc1ccc(NC(=O)N(C)CCc2noc(COc3ccccc3)n2)cc1OC | 788
48 | CCOCCCNC(=S)Nc1ccc2nc(N3CCN(CC)CC3)cc(C)c2c1 | 578
49 | CCC(=O)NCc1csc(C2CCN(C(=O)C3CCC3)CC2)n1 | 614
50 | Cc1cc(C)cc(-c2nnc3ccc(Cl)nn23)c1 | 859
51 | CCCCC(=O)N1CCC2(C1)C(=O)N(C)c1ccccc12 (stereo not drawn) | 743
52 | Cc1nc(C)c(CCNS(=O)(=O)c2cc(Cl)ccc2Cl)s1 | 683
53 | CC(C)CCNS(=O)(=O)c1cccc(-c2nc(-c3ccccc3)no2)c1 | 1230
54 | O=C(Cc1noc2ccccc12)N1CCN(c2cc(-c3ccccc3)ncn2)CC1 | 745
55 | COc1ccc(CNC(=O)Cn2c(N)nc(C)cc2=O)cc1 | 603
56 | CCCCNC(=O)c1cnn(-c2ccc(-c3nc(C)no3)cn2)c1C | 853
57 | O=S(=O)(c1cc(-c2nnc(C3CC3)o2)co1)N1CCC(Cc2ccccc2)CC1 | 1080
58 | CC1Oc2ccc(S(=O)(=O)N3CCC(C(=O)Nc4ccc(C(C)C)cc4)CC3)cc2NC1=O (stereo not drawn) | 916
59 | O=C(c1cccs1)N1N=C(c2cccs2)CC1c1cc([N+](=O)[O-])ccc1O (stereo not drawn) | 876
60 | COc1ccc(Nc2c(-c3ccc(OC)cc3)nc3nc(C)cc(C)n23)cc1 | 711
61 | CN(Cc1nc(-c2ccc(N3CCCC3)nc2)no1)C1CCCCC1 | 569
62 | Cc1sc(-c2cc(C(F)(F)F)on2)cc1S(=O)(=O)NC1CC1 | 1040
63 | O=C(c1ccc(Br)cc1)N1CCc2nc(-c3ccc(Cl)cc3)ncc2C1 | 1160

Row | Structure (SMILES) | RP-LC retention time [s]
64 | CCOC(=O)c1nc(Nc2ccc(S(=O)(=O)Nc3ncccn3)cc2)c2ccccc2n1 | 688
65 | CCNC(=O)N1CCc2c(c(-c3nc(-c4ccc(F)cc4)no3)nn2C)C1 | 788
66 | Cc1nc(C)c(C(=O)Nc2nc(-c3ccc(Br)cc3)cs2)s1 | 1030
67 | Cc1coc2c(C)c3oc(=O)c(CCC(=O)NCCc4c[nH]c5ccccc45)c(C)c3cc12 | 964
68 | COc1ccccc1CNC(=O)c1ccc2c(c1)NC(=O)C1CCCCN21 (stereo not drawn) | 809
69 | COc1ccc(CC(=O)N2CCC3(CC2)NC(=O)c2cc(C)ccc2N3C)cc1 | 769
70 | O=C(Cc1cccc(F)c1)N1CCOc2ccccc2C1 | 844
71 | Cc1noc(C)c1CNC(=O)c1cc(F)ccc1Cl | 726
72 | CC(CNC(=O)c1cc2n(n1)CC(C)(C(=O)NC1CCCC1)N(C)C2=O)c1ccccc1 (stereo not drawn) | 884
73 | CCCn1cc(C2=CCN(C(=O)Nc3ccc(C)c(C)c3)CC2)c2cccnc21 | 1010
74 | CC(C)c1ccc(S(=O)(=O)N(CCN2CCCCC2C)CC(=O)N2CCNCC2)cc1 (stereo not drawn) | 610
75 | Cc1cccc2c(C(N)=O)cc(N3CCCC3)nc12 | 570
76 | Cc1ccc(S(=O)(=O)N2CCC(N3CCN(Cc4ccccc4)C(=O)C3=O)CC2)cc1Cl | 799
77 | CC1CC(=O)N(CC(=O)Nc2ccc(C(F)(F)F)cc2)c2ccccc2S1(=O)=O (stereo not drawn) | 904
78 | CCOC(=O)C1CCN(c2cc3c(cc2NC(=O)NCCC(C)C)n(C)c(=O)n3C)CC1 | 823
79 | Cc1ccc(-c2noc(CN3N=NC4C(=O)N(c5ccc(C)c(Cl)c5)C(=O)C43)n2)cc1 (stereo not drawn) | 1100
80 | CCN1C(=O)c2cccnc2Sc2cc(CNC(=O)c3ccc(OC)c(F)c3)ccc21 | 763
81 | CCCCn1c(=O)c2ccccc2n(Cc2nc(-c3ccc4c(c3)OCO4)no2)c1=O | 1130
82 | O=C(Nc1ccc2c(c1)OCO2)C1CCN(C(=O)c2cccc(F)c2)CC1 | 753
83 | CCOC(=O)c1cnc2nc(C)ccc2c1Nc1cc(F)ccc1F | 726
84 | CCOCCCNC(=O)C1c2cc(OC)c(OC)cc2C(=O)N2CCc3ccccc3C12 (stereo not drawn) | 718
85 | Cc1occc1C(=O)N1CCCn2ccnc2C1C(C)C (stereo not drawn) | 574
86 | Cc1cc2c(N3CCCC(C(=O)N4CCN(c5ccc(Cl)cc5)CC4)C3)nccc2s1 (stereo not drawn) | 799
87 | O=C(CN1C(=O)COc2ccc(C(=O)N3CCCC3)cc21)NCCc1ccc(Cl)cc1 | 765
88 | CC(C)NC(=O)C1CCc2sc(C(=O)N3CCCC3)cc2C1 (stereo not drawn) | 696
